Reference: patent US20070104750A1, “Pesticidally active compositions having enhanced activity” (priority 2005, published 2007)
Like-named read-outs stand apart in the source and are kept apart here.

Legend:
[1] = From the text: Determination of whether a pesticidally active ingredient is reactive with singlet oxygen can be determined from a simple singlet oxygen reactivity test, comprising irradiating a solution of a pesticidally active ingredient in the presence of a photosensitizer, e.g. methylene blue or rose bengal, with a suitable light source, e.g. a sodium lamp, whose spectral output is capable of allowing light absorption by the photo-sensitizer while bypassing the absorption band of the pesticidally active ingredient. The light source, in combination with the photosensitizer and molecular oxygen, will generate singlet oxygen. The observed degradation of the pesticidally active ingredient by a suitable analytical technique, such as HPLC, is indicative of its reaction with singlet oxygen. This test can be conducted in solvents in which singlet oxygen has a relatively long lifetime, e.g. perdeuterated versions of common solvents and carbon disulfide in order to speed the rate of reaction and thereby maximize the detectability of the degradation. Decay constants for singlet oxygen in various solvents are well known in the art and can be found in J. Phys. […] An Expanded and Revised Compilation” by Francis Wilkinson, W. Phillip Helman and Alberta B. Ross; Table 1, entitled Decay Constants for Singlet Oxygen in Various Solvents.
Confirmation of the degradation of the pesticidally active ingredient by singlet oxygen can be obtained further by adding a molecule which is capable of deactivating singlet oxygen by physical or chemical means, i.e. a singlet oxygen quencher, to the pesticidally active ingredient-photosensitizer solution. Suitable singlet oxygen quenchers include, for example DABCO (1,4-diazabicyclo[2.2.2]octane) and beta-carotene. A reduction in the rate of degradation of the pesticidally active ingredient in the presence of a singlet oxygen quencher confirms that the initial degradation was due to the reaction with singlet oxygen.
The solution was irradiated with a Philips 150 watt high pressure sodium lamp (sample was ca. 20 cm from lamp). […] The experiment was repeated with the inclusion of the singlet oxygen quencher DABCO (1.0×10^−3M, diazabicyclooctane Aldrich). A value greater than one indicates a slowing of the degradation due to singlet oxygen in the presence of the quencher.

[2] = test system: beet armyworm (Spodoptera exigua) larvae
[3] = activity enhancer alone, 10,000 ppm, 4 DAT
[4] = activity enhancer alone, 10,000 ppm, 7 DAT
[5] = activity enhancer alone, 1000 ppm, 9 DAT

In the case of CCO[C@@H]1[C@@H](OC)[C@H](C)O[C@@H](O[C@@H]2C[C@H]3CC[C@@H]4[C@@H](C=C5C(=O)[C@H](C)[C@@H](O[C@H]6CC[C@H](N(C)C)[C@@H](C)O6)CCC[C@H](CC)OC(=O)C[C@H]54)[C@@H]3C2)[C@@H]1OC [DE-175 J, (2R,3aR,5aR,5bS,9S,13S,14R,16aS,16bR)-13-{[(2R,5S,6R)-5-(dimethylamino)-6-methyltetrahydro-2H-pyran-2-yl]oxy}-9-ethyl-14-methyl-7,15-dioxo-2,3,3a,4,5,5a,5b,6,7,9,10,11,12,13,14,15,16a,16b-octadecahydro-1H-as-indaceno[3,2-d]oxacyclododecin-2-yl 6-deoxy-3-O-ethyl-2,4-di-O-methyl-α-L-mannopyranoside], the “rate constant for the degradation” value [1] is reported as 0.1317 min⁻¹, the kwo/kw ([1]; potential activity enhancer TEPA, weight ratio I/II 3.3:1, acetonitrile) is reported as 1.9 and the kwo/kw ([1]; potential activity enhancer Tryptophan, weight ratio I/II 1:1, methanol) is reported as 1.15. The kwo/kw ([1]; potential activity enhancer Tryptophan, weight ratio I/II 1:10, methanol) was 1.3, the kwo/kw ([1]; potential activity enhancer Zein, weight ratio I/II 1:5, isopropanol(85)/water(15)) was 1.0 and the kwo/kw ([1]; quencher DABCO, weight ratio active ingredient/DABCO 3.3:1, acetonitrile) was 5.1.

For “BSA (as 30% aqueous suspension): Bovine Serum Albumin available from Sigma”, the Percent mortality [2, 3] was 0% and the Percent mortality [2, 4] was 0%.

In the case of C1CN2CCN1CC2 [DABCO, diazabicyclooctane], the Percent mortality ([2]; activity enhancer alone, 1000 ppm, 2 DAT) is reported as 0%, the Percent mortality ([2]; activity enhancer alone, 1000 ppm, 7 DAT) is reported as 0% and the Percent mortality [2, 5] is reported as 0%.

With “BSA (as 96% powder): Bovine Serum Albumin available from Sigma” the Percent mortality [2, 3] was 0% and the Percent mortality [2, 4] was 0%.

With C1N2CN3CN1CN(C2)C3 [HMTA, hexamethylenetetramine] the Percent mortality [2, 5] was 4%.

With CC(Cc1ccc(C(C)(C)C)cc1)CN1C[C@@H](C)O[C@@H](C)C1 (stereo partly drawn) [Fenpropimorph] the kwo/kw ([1]; quencher DABCO, weight ratio active ingredient/DABCO 2.7:1, acetonitrile) was 7.7.

In the case of C=CCOC(Cn1ccnc1)c1ccc(Cl)cc1Cl (stereo not drawn) [Imazalil], the kwo/kw ([1]; quencher DABCO, weight ratio active ingredient/DABCO 2.6:1, acetonitrile) is reported as 4.4.

For Abamectin, the kwo/kw ([1]; potential activity enhancer Zein, weight ratio I/II 1:20, isopropanol(85)/water(15)) was 1.0 and the kwo/kw ([1]; quencher DABCO, weight ratio active ingredient/DABCO 7.8:1, acetonitrile-d3) was 37.2.

B1: Egg albumin: Egg Albumin available from Sigma (protein, UniProt P01012 2-386, looked up)
Ovalbumin: GSIGAASMEFCFDVFKELKVHHANENIFYCPIAIMSALAMVYLGAKDSTRTQINKVVRFDKLPGFGDSIEAQCGTSVNVHSSLRDILNQITKPNDVYSFSLASRLYAEERYPILPEYLQCVKELYRGGLEPINFQTAADQARELINSWVESQTNGIIRNVLQPSSVDSQTAMVLVNAIVFKGLWEKAFKDEDTQAMPFRVTEQESKPVQMMYQIGLFRVASMASEKMKILELPFASGTMSMLVLLPDEVSGLEQLESIINFEKLTEWTSSNVMEERKIKVYLPRMKMEEKYNLTSVLMAMGITDVFSSSANLSGISSAESLKISQAVHAAHAEINEAGREVVGSAEAGVDAASVSEEFRADHPFLFCIKHIATNAVLFFGRCVSP
B1 showed a Percent mortality ([2]; activity enhancer alone, 1000 ppm, 3 DAT) of 0%, a Percent mortality ([2]; activity enhancer alone, 1000 ppm, 5 DAT) of 0% and a Percent mortality ([2]; activity enhancer alone, 1000 ppm, 8 DAT) of 0%.
